According to US7034053B2, “Phenethanolamine derivatives, compositions, and their use as agonists at atypical beta-adrenoreceptors” (SmithKline Beecham Corporation, priority 2001, dated 2006):

melting point | SMILES
275 °C (dec.) | O=C(O)c1ccsc1-c1cccc(NCCNC[C@H](O)c2cccc(Cl)c2)c1 [Example 5, 2-(3-{[2-(3-Chlorophenyl)-2R-hydroxyl-ethylamino]ethylamino}phenyl)thiophene-3-carboxylic acid]
250 °C (dec.) | O=C(O)c1ccoc1-c1cccc(NCCNC[C@H](O)c2cccc(Cl)c2)c1 [Example 2, 2-(3-{[2-(3-Chlorophenyl)-2R-hydroxyl-ethylamino]ethylamino}phenyl)furan-3-carboxylic acid]
